Reference: BindingDB's records for doi:10.1016/j.bmcl.2010.04.113 (Merck Serono, 2010)
pIC50: −log10 of the molar value.

Assay: Antagonist activity at human CXCR3 expressed in mouse L1.2 cells assessed as inhibition of IP10-induced chemotaxis after 4 hrs

Structure (SMILES)	pIC50
COc1ccc(S(=O)(=O)N(Cc2ccc(C(=O)NCC3CC3)cc2)Cc2cccnc2)cc1 [N-(cyclopropylmethyl)-4-((4-methoxy-N-(pyridin-3-ylmethyl)phenylsulfonamido)methyl)benzamide]	5.94
COc1ccc(S(=O)(=O)N(Cc2ccccc2)Cc2ccc(C(=O)O)cc2)cc1 [4-((N-benzyl-4-methoxyphenylsulfonamido)methyl)benzoicacid]	5.19
N#Cc1ccc(S(=O)(=O)N(Cc2ccc(C(=O)O)c(F)c2)Cc2ccccn2)cc1 [4-((4-cyano-N-(pyridin-2-ylmethyl)phenylsulfonamido)methyl)-2-fluorobenzoicacid]	5.97
O=C(NCC1CC1)c1ccc(CN(Cc2ccccc2)S(=O)(=O)c2ccc(Cl)cc2)cc1 [4-((N-benzyl-4-chlorophenylsulfonamido)methyl)-N-(cyclopropylmethyl)benzamide]	5.70
O=S(=O)(c1ccc(Cl)cc1)N(CCc1cc2ccccc2cn1)Cc1ccc(-c2nnn[nH]2)cc1 [N-(4-(1H-tetrazol-5-yl)benzyl)-4-chloro-N-(2-(isoquinolin-3-yl)ethyl)benzenesulfonamide]	6.04
O=C(NCC1CC1)c1ccc(CN(Cc2cccc(Cl)c2)S(=O)(=O)c2ccc(Cl)cc2)cc1 [4-((4-chloro-N-(3-chlorobenzyl)phenylsulfonamido)methyl)-N-(cyclopropylmethyl)benzamide]	6.03
O=C(NCC1CC1)c1ccc(CN(Cc2ccccc2)S(=O)(=O)c2ccc(OC(F)(F)F)cc2)cc1 [4-((N-benzyl-4-(trifluoromethoxy)phenylsulfonamido)methyl)-N-(cyclopropylmethyl)benzamide]	5.25
COc1ccc(S(=O)(=O)N(Cc2ccccc2)Cc2ccc(C(=O)NCC3CC3)cc2)cc1 [4-((N-benzyl-4-methoxyphenylsulfonamido)methyl)-N-(cyclopropylmethyl)benzamide]	6.16
O=C(O)c1ccc(CN(Cc2ccccc2)S(=O)(=O)c2ccc(Cl)cc2)cc1 [4-((N-benzyl-4-chlorophenylsulfonamido)methyl)benzoicacid]	5.53

Compounds with a higher pIC50, results first:

pIC50	Structure (SMILES)
6.27	CCOc1ccc(S(=O)(=O)N(Cc2ccc(-c3nnn[nH]3)cc2)Cc2ccccn2)cc1 [N-(4-(1H-tetrazol-5-yl)benzyl)-4-ethoxy-N-(pyridin-2-ylmethyl)benzenesulfonamide]
6.60	CC(C)(C)c1nc(CCN(Cc2ccc(-c3nnn[nH]3)cc2)S(=O)(=O)c2ccc(Cl)cc2)no1 [N-(4-(1H-tetrazol-5-yl)benzyl)-N-(2-(5-tert-butyl-1,2,4-oxadiazol-3-yl)ethyl)-4-chlorobenzenesulfonamide]
6.36	O=S(=O)(c1ccc(Cl)cc1)N(Cc1ccc(-c2nnn[nH]2)c(F)c1)Cc1ccccn1 [4-chloro-N-(3-fluoro-4-(1H-tetrazol-5-yl)benzyl)-N-(pyridin-2-ylmethyl)benzenesulfonamide]
7.07	O=C(NCc1cccc(Cl)c1)c1ccc(CN(Cc2ccccn2)S(=O)(=O)c2ccc(Cl)cc2)cc1 [4-((4-chloro-N-(pyridin-2-ylmethyl)phenylsulfonamido)methyl)-N-(3-chlorobenzyl)benzamide]
6.46	COc1ccc(S(=O)(=O)N(Cc2ccccc2)Cc2ccc(C(=O)NCc3ccccc3)cc2)cc1 [N-benzyl-4-((N-benzyl-4-methoxyphenylsulfonamido)methyl)benzamide]
6.17	CCOc1ccc(S(=O)(=O)N(Cc2ccccc2)Cc2ccc(C(=O)NCC3CC3)cc2)cc1 [4-((N-benzyl-4-ethoxyphenylsulfonamido)methyl)-N-(cyclopropylmethyl)benzamide]
